{
  "source": "patent US20230000950A1",
  "about": "“COMPOSITION COMPRISING GLUCAGON AND GLP-1 AND GIP RECEPTOR DUAL AGONIST AND THERAPEUTIC USE OF SAME” (HANMI PHARM. CO., LTD., priority 2019, published 2023)",
  "molecules": {"B1": {"name": "glucagon derivative of SEQ ID NO: 4 (peptide)", "peptide": "HSQGTFTSDYSKYLDSCDAQDFVQWLMNT"}, "B2": {"name": "glucagon derivative of SEQ ID NO: 8 (peptide)", "peptide": "Y[Aib]QGTFTSDYSKYLDSCDAQDFVQWLINT"}, "B3": {"name": "tirzepatide (peptide)", "peptide": "YXEGTFTSDYSIXLDKIAQKAFVQWLIAGGPSSGAPPPS", "modifications": "not fully specified; X at positions 2 and 13 = 2-methylalanine (Aib); Lys 20 N6-[(22S)-22,42-dicarboxy-10,19,24-trioxo-3,6,12,15-tetraoxa-9,18,23-triazadotetracontan-1-oyl]; C-terminal serinamide"}, "B4": {"name": "glucagon derivative of SEQ ID NO: 45 (peptide)", "peptide": "Y[Aib]QGTFTSDYSCYLDEKRAKEFVQWLMNT"}, "B5": {"name": "glucagon derivative of SEQ ID NO: 7 (peptide)", "peptide": "YSQGTFTSDYSKYLDSCEADDFVQWLMNT"}, "B6": {"name": "glucagon derivative of SEQ ID NO: 44 (peptide)", "peptide": "YXQGTFTSDYSKYLDSRRAQDFVQWLMNTC", "modifications": "X at position 2 = aminoisobutyric acid (Aib)"}, "B7": {"name": "glucagon derivative of SEQ ID NO: 6 (peptide)", "peptide": "HSQGTFTSDYSKYLDSCEADDFVQWLMNT"}, "B8": {"name": "glucagon derivative of SEQ ID NO: 5 (peptide)", "peptide": "HSQGTFTSDYSKYLDSCEAQDFVQWLMNT"}},
  "key": {"[1]": {"conditions": "cited from earlier work"}, "[2]": {"system": "high-fat diet-induced obese mouse", "assay": "High-fat diet-induced obese mice: body weight, fat weight, blood lipids, HOMA-IR, energy metabolism-related gene expression", "assay_type": "in vivo", "conditions": "21 days, subcutaneous; long-acting glucagon derivative 2.0 nmol/kg once every two days, tirzepatide 20 nmol/kg once every two days, Saxenda 50 nmol/kg twice a day", "protocol": "A high-fat diet-induced obese mouse, which was widely used as an obese animal model, was used for this study. The body weight of the mice was about 50 g to 55 g before administration. During the study period, seven mice were housed and had free access to water. The lights were turned off from 6 P.M. to 6 A.M.\nThe administration was performed by subcutaneous injection in all cases.\nThe experiment was terminated on the 21st day, the changes in body weight of the mice corresponding to each group were measured every two days during the experiment. After the experiment was terminated, the fat weight, blood lipid levels, HOMA-IR, and energy metabolism-related gene expression in tissues were measured."}, "human GIP receptor [3]": {"target": "T1, human GIP receptor (Homo sapiens, UniProt P48546)", "T1 construct": "expressed in transfected cells; host or cells: CHO DG44", "T1 sequence (P48546 22-466)": "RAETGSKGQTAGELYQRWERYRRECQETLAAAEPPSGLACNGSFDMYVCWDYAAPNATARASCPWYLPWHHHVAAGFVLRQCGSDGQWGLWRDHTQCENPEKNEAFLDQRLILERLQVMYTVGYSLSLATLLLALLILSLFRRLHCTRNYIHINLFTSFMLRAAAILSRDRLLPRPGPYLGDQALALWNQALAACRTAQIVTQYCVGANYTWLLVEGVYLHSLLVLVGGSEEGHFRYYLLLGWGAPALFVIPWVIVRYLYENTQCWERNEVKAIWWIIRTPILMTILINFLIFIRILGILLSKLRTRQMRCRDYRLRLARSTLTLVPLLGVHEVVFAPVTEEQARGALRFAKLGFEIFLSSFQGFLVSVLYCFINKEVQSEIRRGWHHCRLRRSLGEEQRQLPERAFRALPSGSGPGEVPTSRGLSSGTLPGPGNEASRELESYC", "assay": "cAMP activity of dual agonist in cell line expressing human GIP receptor", "assay_type": "cell-based", "conditions": "EC50 compared with native GIP, CHO DG44 cells", "text": "(§1) and GIP A recombinant vector was constructed using the expression vector X0GC/dhfr so as to express human GLP-1 receptor and human GIP receptor, then transformed into CHO DG44 cells using lipofectamine, and selectively cultured in a selective medium containing G418 and methotrexate. From this, monoclonal cell lines were selected by limiting dilution. Among these, cell lines showing excellent concentration-dependent cAMP response to GLP-1 and GIP were finally selected.\n(§2) In the cell lines expressing human GLP-1 receptor and human GIP receptor produced in Example 6, the activity of the dual agonist synthesized in Example 7 was measured.\n(§3) Specifically, the transformed cell lines of Example 6 were subcultured 3 or 4 times a week, and then the subcultured cell lines were seeded in a 384-well plate by 6×10^3 per well and cultured for 24 hours. In HBSS (Hank's balanced salt solution) buffer containing 0.5 mM IBMX (3-isobutyl-1-methylxanthine), 0.1% BSA (bovine serum albumin), and 5 mM HEPES (4-(2-hydroxyethyl)-1-piperazineethanesulfonic acid), native GLP-1 and GIP were suspended at 200 nM and the dual agonist at 1600 nM, and then serially diluted 4-fold 10 times. This was applied to the cAMP assay kit (LANCE cAMP 384 kit, PerkinElmer) and added to each of the cultured cell lines, and then the fluorescence value was measured."}, "CD-HFD mouse model": {"system": "CD-HFD mouse model", "assay": "CD-HFD (choline-deficient and high-fat, high-cholesterol diet) mouse model of NASH and fibrosis: NAS and liver collagen expression", "assay_type": "in vivo", "conditions": "6 weeks repeated administration Q2D subcutaneous, vs CD-HFD vehicle control", "text": "In order to verify the efficacy on NASH and fibrosis improvement by combined administration of the long-acting glucagon derivative and GLP-1/GIP dual agonist (tirzepatide) according to the present invention prepared in Examples, a CD-HFD (choline-deficient and high-fat, high-cholesterol diet) mouse model was used.\nMice induced by 8-week CD-HFD were divided into a vehicle control group, a long-acting glucagon derivative (1.3 nmol/kg, Q2D, subcutaneous) administration group, a dual agonist (73 nmol/kg, Q2D, subcutaneous) administration group, and a long-acting glucagon derivative and dual agonist combined administration group, and repeated administration was performed for 6 weeks. As a negative control group, a group administered with a vehicle to normal diet mice was used. After 6 weeks of repeated administration, the liver tissue of each mouse was taken as an autopsy, and the efficacy on NASH and fibrosis improvement was evaluated by measuring NAS (NAFLD activity score) through H&E staining and collagen expression through quantitative PCR.\nFor the statistical processing in all the cases, the vehicle group (control group) and the test groups were compared using one-way ANOVA, and the t-test was used to compare the additional efficacy of the combined administration group with that of the single administration group (* to ** p<0.05 to 0.001 vs. vehicle control group)."}, "human GLP-1 receptor [4]": {"target": "T2, human GLP-1 receptor (Homo sapiens, UniProt P43220)", "T2 construct": "expressed in transfected cells; host or cells: CHO DG44", "T2 sequence (P43220 24-463)": "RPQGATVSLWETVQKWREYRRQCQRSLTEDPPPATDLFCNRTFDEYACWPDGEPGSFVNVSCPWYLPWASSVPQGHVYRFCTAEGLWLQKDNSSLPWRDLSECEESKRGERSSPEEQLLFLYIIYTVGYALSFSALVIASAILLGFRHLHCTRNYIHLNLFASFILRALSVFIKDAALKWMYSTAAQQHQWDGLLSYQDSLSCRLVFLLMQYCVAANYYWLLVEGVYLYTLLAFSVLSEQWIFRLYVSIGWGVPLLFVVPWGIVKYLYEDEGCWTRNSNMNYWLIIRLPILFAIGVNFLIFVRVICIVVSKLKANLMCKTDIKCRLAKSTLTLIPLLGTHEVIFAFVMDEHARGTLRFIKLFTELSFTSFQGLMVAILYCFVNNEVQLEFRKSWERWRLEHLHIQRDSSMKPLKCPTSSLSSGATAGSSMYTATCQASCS", "assay": "cAMP activity of dual agonist in cell line expressing human GLP-1 receptor", "assay_type": "cell-based", "conditions": "EC50 compared with native GLP-1, CHO DG44 cells", "text": "as §1, §2, §3"}, "human glucagon receptor": {"target": "human glucagon receptor (human, UniProt P47871 26-477)", "sequence (P47871 26-477)": "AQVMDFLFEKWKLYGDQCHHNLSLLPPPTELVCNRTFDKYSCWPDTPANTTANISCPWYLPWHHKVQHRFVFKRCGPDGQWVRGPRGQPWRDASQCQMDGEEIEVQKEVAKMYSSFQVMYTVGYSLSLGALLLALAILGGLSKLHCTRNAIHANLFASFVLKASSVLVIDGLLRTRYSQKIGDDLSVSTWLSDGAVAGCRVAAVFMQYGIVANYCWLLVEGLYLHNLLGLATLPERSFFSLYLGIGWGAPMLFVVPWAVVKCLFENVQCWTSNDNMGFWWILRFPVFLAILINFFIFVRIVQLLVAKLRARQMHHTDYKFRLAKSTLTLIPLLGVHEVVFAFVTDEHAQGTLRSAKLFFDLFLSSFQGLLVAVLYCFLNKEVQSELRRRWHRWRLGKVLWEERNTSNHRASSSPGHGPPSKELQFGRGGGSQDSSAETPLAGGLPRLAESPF", "assay": "cell-based or functional assay"}, "human GLP-1 receptor [5]": {"target": "human GLP-1 receptor (human, UniProt P43220 24-463)", "assay": "cell-based or functional assay"}, "human GIP receptor [6]": {"target": "T3, human GIP receptor (human, UniProt P48546 22-466)", "T3 sequence (looked up)": "T1 sequence (P48546 22-466)", "assay": "cell-based or functional assay"}},
  "note": "Read-outs that look alike come from different tables or passages of the source. Non-standard residues stand in square brackets, D forms with d. No end group written: not given here. Aib = CC(C)(N)C(=O)O",
  "data": [
    {"molecule": "CCCCCCCCCCC[C@@H](C[C@@H]1OC(=O)[C@H]1CCCCCC)OC(=O)[C@H](CC(C)C)NC=O", "note": "[orlistat]", "values": [
      {"measurement": "body weight loss effect", "setting": "[1]; taken for one year", "result": "about 4 kg"}
    ]},
    {"molecule": "contrave", "values": [
      {"measurement": "side effects", "setting": "[1]; in vivo", "result": "cardiovascular side effects"}
    ]},
    {"molecule": "CC(C)CC(N(C)C)C1(c2ccc(Cl)cc2)CCC1", "note": "(stereo not drawn) [sibutramine]", "values": [
      {"measurement": "side effects", "setting": "[1]; reported", "result": "cardiovascular side effects"}
    ]},
    {"molecule": "Cc1c(C(=O)NN2CCCCC2)nn(-c2ccc(Cl)cc2Cl)c1-c1ccc(Cl)cc1", "note": "[rimonabant]", "values": [
      {"measurement": "side effects", "setting": "[1]; reported", "result": "central nervous system side effects"}
    ]},
    {"molecule": "CC[C@H](C)[C@H](NC(=O)[C@H](CC(C)C)NC(=O)[C@H](Cc1c[nH]c2ccccc12)NC(=O)[C@H](CCC(N)=O)NC(=O)[C@@H](NC(=O)[C@H](Cc1ccccc1)NC(=O)[C@H](C)NC(=O)[C@H](CCCCNC(=O)COCCOCCNC(=O)COCCOCCNC(=O)CC[C@H](NC(=O)CCCCCCCCCCCCCCCCCCC(=O)O)C(=O)O)NC(=O)[C@H](CCC(N)=O)NC(=O)[C@H](C)NC(=O)[C@@H](NC(=O)[C@H](CCCCN)NC(=O)[C@H](CC(=O)O)NC(=O)[C@H](CC(C)C)NC(=O)C(C)(C)NC(=O)[C@@H](NC(=O)[C@H](CO)NC(=O)[C@H](Cc1ccc(O)cc1)NC(=O)[C@H](CC(=O)O)NC(=O)[C@H](CO)NC(=O)[C@@H](NC(=O)[C@H](Cc1ccccc1)NC(=O)[C@@H](NC(=O)CNC(=O)[C@H](CCC(=O)O)NC(=O)C(C)(C)NC(=O)[C@@H](N)Cc1ccc(O)cc1)[C@@H](C)O)[C@@H](C)O)[C@@H](C)CC)[C@@H](C)CC)C(C)C)C(=O)N[C@@H](C)C(=O)NCC(=O)NCC(=O)N1CCC[C@H]1C(=O)N[C@@H](CO)C(=O)N[C@@H](CO)C(=O)NCC(=O)N[C@@H](C)C(=O)N1CCC[C@H]1C(=O)N1CCC[C@H]1C(=O)N1CCC[C@H]1C(=O)N[C@@H](CO)C(N)=O", "note": "[Dual agonist (tirzepatide)]", "values": [
      {"measurement": "change in body weight compared to before administration", "setting": "[2]", "result": "−19.39", "unit": "%"},
      {"measurement": "Relative in vitro activity to native ligand (EC50), GIP receptor", "setting": "human GIP receptor [3]", "result": 6.7, "unit": "%"},
      {"measurement": "NAS (NAFLD activity score)", "setting": "CD-HFD mouse model; long-acting glucagon derivative 1.3 nmol/kg, dual agonist 73 nmol/kg, H&E staining", "result": "significantly reduced"},
      {"measurement": "collagen expression in liver tissue", "setting": "CD-HFD mouse model; quantitative PCR", "result": "significantly reduced"},
      {"measurement": "Relative in vitro activity to native ligand (EC50), GLP-1 receptor", "setting": "human GLP-1 receptor [4]", "result": 1.3, "unit": "%"}
    ]},
    {"molecule": "B1", "values": [
      {"measurement": "In vitro activity (relative activity to SEQ ID NO: 1, %), cAMP assay, from EC50", "setting": "human glucagon receptor", "result": "< 0.1", "unit": "%"}
    ]},
    {"molecule": "B2", "values": [
      {"measurement": "In vitro activity (relative activity to SEQ ID NO: 1, %), cAMP assay, from EC50", "setting": "human glucagon receptor", "result": "< 0.1", "unit": "%"}
    ]},
    {"molecule": "B3", "values": [
      {"measurement": "Relative in vitro activity to native ligand (EC50), cAMP assay", "setting": "human GLP-1 receptor [5]", "result": 1.3, "unit": "%"},
      {"measurement": "Relative in vitro activity to native ligand (EC50), cAMP assay", "setting": "human GIP receptor [6]", "result": 6.7, "unit": "%"}
    ]},
    {"molecule": "B4", "values": [
      {"measurement": "In vitro activity (relative activity to SEQ ID NO: 1, %), cAMP assay, from EC50", "setting": "human glucagon receptor", "result": 5.2, "unit": "%"}
    ]},
    {"molecule": "B5", "values": [
      {"measurement": "In vitro activity (relative activity to SEQ ID NO: 1, %), cAMP assay, from EC50", "setting": "human glucagon receptor", "result": "< 0.1", "unit": "%"}
    ]},
    {"molecule": "B6", "values": [
      {"measurement": "In vitro activity (relative activity to SEQ ID NO: 1, %), cAMP assay, from EC50", "setting": "human glucagon receptor", "result": 75.4, "unit": "%"}
    ]},
    {"molecule": "B7", "values": [
      {"measurement": "In vitro activity (relative activity to SEQ ID NO: 1, %), cAMP assay, from EC50", "setting": "human glucagon receptor", "result": "< 0.1", "unit": "%"}
    ]},
    {"molecule": "B8", "values": [
      {"measurement": "In vitro activity (relative activity to SEQ ID NO: 1, %), cAMP assay, from EC50", "setting": "human glucagon receptor", "result": 0.3, "unit": "%"}
    ]}
  ]
}
